Results as given in ChEMBL document CHEMBL1201862, “PubChem BioAssay data set” (2004).
The source made the active and inactive calls.

Legend:
[1] = biological target: Protein disulfide-isomerase (Homo sapiens, UniProt P07237); experiment: PDI inhibitors, insulin aggregation turbidity, dose response, biochemical, absorbance, cherry-picked samples (AID 602350); type: functional
[2] = inhibitors of intracellular T. cruzi replication, confirmation, NIH3T3 host cells, beta-gal luminescence (AID 2044); type: functional, cell-based;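 also: intracellular parasites grown in NIH/3T3 mouse fibroblasts as host cells; luminescent beta-galactosidase reporter signal from transgenic T. cruzi replicating inside host cells; inhibitors lower the luminescence signal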
[3] = cytotoxicity toward NIH3T3 fibroblasts, dose response, counter-screen, cell-based, ATP luminescence, mouse fibroblasts (AID 2010); type: functional;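 also: cells exposed to compound for about 90 hours before reading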
[4] = biological target: C-C chemokine receptor type 6 (Homo sapiens, UniProt P51684); experiment: CCR6 receptor antagonists, SAR follow-up, cell-based, luminescent beta-arrestin readout (AID 540334); type: functional
[5] = biological target: C-X-C chemokine receptor type 5 (Homo sapiens, UniProt P32302); experiment: CXCR5 receptor antagonists, SAR follow-up, selectivity assay for CCR6 antagonist project, cell-based, beta-arrestin, luminescence, CHO-K1 PathHunter (AID 540340); type: functional
[6] = biological target: T1, Heat shock factor protein 1 (Mus musculus, UniProt P38532); experiment: HSF1 potentiators in luciferase reporter cells, confirmation, cell-based, NIH3T3, luminescence, dose retest (AID 435004); type: functional;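 also: stress induced by proteasome inhibitor MG132 added 30 min after compound; luciferase reporter driven by HSF1 response element in NIH3T3 cells; actives raise luminescence as potentiators of the MG132 stress response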
T1 sequence (P38532 whole entry): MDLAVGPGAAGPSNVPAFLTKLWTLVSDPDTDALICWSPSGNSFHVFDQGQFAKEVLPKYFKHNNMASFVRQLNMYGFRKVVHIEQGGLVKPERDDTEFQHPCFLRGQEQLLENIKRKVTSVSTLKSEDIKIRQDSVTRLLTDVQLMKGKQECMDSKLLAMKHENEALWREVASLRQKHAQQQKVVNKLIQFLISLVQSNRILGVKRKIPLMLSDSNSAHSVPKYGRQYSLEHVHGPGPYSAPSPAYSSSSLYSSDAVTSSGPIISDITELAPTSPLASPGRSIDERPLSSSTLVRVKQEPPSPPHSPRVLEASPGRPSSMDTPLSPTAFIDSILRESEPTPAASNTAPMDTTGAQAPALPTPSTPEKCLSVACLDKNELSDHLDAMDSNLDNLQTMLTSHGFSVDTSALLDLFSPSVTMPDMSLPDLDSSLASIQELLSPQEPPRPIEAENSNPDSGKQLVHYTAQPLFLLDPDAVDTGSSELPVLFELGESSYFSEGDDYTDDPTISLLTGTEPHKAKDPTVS

[7] = biological target: T2, Protein RecA (Mycobacterium tuberculosis, UniProt P9WHJ3); experiment: Fluorescence Cell-Free Homogeneous Dose Retest to Identify Inhibitors of RecA-Intein Splicing Activity. [Related pubchem assays (depositor defined):AID2097, AID2223, AID489010, AID492950]; type: functional
T2 sequence (P9WHJ3 whole entry): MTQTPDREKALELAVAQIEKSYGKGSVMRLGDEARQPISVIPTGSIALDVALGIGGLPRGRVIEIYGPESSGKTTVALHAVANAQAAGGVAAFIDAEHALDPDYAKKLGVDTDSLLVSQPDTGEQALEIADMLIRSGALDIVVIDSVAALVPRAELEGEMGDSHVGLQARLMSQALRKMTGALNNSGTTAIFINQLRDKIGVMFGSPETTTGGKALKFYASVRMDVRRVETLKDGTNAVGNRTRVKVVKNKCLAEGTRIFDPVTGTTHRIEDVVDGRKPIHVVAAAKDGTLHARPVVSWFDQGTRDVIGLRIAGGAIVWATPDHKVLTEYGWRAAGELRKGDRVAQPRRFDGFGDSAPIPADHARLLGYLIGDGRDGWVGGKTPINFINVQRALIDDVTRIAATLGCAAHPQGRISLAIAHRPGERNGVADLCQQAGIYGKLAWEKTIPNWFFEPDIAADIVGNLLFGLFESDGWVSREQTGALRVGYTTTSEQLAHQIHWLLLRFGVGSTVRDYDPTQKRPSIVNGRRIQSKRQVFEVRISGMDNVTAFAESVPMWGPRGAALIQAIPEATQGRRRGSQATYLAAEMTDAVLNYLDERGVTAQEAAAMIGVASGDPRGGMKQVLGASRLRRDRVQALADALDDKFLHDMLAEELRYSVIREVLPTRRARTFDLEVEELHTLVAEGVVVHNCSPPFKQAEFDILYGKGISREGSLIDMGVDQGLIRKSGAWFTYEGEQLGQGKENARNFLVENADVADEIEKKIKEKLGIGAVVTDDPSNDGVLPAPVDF

[8] = biological target: Apelin receptor (Homo sapiens, UniProt P35414); experiment: APJ beta-arrestin recruitment antagonism, SAR follow-up, selectivity assay for CCR6 antagonist project, cell-based, luminescent, enzyme-fragment complementation (AID 588359); type: functional
[9] = biological target: T3, Replicative DNA helicase DnaB (Mycobacterium tuberculosis, UniProt P9WMR3); experiment: DnaB intein splicing inhibitors, dose response, biochemical, cell-free fluorescence (AID 449749); type: functional
T3 sequence (P9WMR3 whole entry): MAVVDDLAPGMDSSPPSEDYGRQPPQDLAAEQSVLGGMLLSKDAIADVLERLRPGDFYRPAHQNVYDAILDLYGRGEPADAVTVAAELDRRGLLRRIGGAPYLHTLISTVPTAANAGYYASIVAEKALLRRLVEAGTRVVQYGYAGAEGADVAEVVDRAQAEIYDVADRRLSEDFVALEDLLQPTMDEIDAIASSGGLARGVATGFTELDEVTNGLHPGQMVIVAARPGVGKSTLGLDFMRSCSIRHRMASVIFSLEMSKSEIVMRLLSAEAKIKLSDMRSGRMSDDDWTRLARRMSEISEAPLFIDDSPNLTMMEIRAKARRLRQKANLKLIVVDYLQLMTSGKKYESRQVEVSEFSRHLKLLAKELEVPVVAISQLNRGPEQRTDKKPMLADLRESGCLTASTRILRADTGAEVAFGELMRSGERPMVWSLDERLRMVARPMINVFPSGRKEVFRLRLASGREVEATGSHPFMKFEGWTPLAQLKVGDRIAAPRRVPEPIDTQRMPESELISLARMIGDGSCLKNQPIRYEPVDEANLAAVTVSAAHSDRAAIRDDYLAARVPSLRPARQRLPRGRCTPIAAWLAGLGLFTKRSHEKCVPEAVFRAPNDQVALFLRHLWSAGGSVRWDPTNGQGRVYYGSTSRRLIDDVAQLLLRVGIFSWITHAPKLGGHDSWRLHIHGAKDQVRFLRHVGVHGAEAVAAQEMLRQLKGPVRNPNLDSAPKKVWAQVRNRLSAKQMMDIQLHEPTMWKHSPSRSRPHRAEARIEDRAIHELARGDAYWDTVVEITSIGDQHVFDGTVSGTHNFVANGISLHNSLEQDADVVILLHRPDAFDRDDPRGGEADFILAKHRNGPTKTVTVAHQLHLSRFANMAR

[10] = cells

Sequence of Apelin receptor (P35414 whole entry, the tested form may be a part): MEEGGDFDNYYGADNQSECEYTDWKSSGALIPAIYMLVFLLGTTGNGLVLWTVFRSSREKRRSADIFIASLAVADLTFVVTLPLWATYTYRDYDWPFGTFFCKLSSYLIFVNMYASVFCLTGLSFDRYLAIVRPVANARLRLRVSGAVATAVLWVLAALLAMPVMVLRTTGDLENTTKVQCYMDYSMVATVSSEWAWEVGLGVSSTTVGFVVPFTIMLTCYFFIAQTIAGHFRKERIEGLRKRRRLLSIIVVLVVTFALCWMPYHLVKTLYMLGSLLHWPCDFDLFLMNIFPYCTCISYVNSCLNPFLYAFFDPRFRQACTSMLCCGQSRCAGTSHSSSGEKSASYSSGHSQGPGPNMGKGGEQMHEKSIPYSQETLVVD
Sequence of C-C chemokine receptor type 6 (P51684 whole entry): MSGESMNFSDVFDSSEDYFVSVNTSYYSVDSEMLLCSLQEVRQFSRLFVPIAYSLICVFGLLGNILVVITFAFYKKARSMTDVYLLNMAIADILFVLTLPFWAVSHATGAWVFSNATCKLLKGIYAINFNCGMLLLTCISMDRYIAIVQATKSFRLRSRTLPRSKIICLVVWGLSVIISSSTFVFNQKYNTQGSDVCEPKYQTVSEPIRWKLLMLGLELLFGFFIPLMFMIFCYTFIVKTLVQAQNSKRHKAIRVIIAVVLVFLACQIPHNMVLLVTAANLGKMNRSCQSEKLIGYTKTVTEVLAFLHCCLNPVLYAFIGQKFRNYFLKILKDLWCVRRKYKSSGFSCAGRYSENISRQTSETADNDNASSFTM
Sequence of C-X-C chemokine receptor type 5 (P32302 whole entry): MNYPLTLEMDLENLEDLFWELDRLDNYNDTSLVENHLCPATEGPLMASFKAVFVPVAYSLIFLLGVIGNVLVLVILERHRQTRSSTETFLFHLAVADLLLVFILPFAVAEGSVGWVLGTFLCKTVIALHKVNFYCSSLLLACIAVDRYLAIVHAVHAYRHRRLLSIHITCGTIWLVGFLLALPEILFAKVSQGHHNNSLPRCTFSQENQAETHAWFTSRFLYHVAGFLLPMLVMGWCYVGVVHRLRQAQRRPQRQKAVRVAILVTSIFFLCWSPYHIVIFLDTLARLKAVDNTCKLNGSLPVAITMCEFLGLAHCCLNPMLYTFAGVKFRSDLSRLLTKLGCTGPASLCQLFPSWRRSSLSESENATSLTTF
Sequence of Protein disulfide-isomerase (P07237 whole entry): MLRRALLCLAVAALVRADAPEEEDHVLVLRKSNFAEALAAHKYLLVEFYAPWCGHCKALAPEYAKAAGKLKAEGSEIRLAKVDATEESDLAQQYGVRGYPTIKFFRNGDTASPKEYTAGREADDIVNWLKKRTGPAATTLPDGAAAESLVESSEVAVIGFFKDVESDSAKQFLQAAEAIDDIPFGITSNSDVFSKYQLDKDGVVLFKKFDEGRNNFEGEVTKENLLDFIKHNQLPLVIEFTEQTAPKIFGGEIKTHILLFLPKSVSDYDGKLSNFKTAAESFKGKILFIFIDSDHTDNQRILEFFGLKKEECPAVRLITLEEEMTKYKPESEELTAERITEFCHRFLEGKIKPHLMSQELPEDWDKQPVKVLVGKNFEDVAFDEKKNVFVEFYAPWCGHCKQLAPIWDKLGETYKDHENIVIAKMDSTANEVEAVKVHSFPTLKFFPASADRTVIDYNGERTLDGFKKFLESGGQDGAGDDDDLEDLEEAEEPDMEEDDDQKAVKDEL

With O=S(=O)(c1ccccc1)N1N=C(c2ccc(O)cc2)CC1c1ccco1 (stereo not given) as the compound, how does the AC50 [1] read?
The AC50 was 19.5 µM (active).

What does the source list for CN1CCc2nc(SCc3ccc(Cl)cc3)c(C#N)c(-c3cccs3)c2C1?
EC50 [2]: < 0.1 µM (active); EC50 [3]: > 60 µM (not active); IC50 [4]: > 66.6 µM (inactive); IC50 [5]: 26.3 µM (inactive); EC50 [6]: 10.1 µM (active); EC50 [7]: 4.41 µM (active); IC50 [8]: > 66.6 µM (inactive); AC50 [9]: > 380 µM (inactive); EC50 [10]: 0.014 µM (active)
